Test results reported in article doi:10.1101/2023.04.18.537371v1 (bioRxiv, 2023).
Peptide text beside a SMILES is read from it.

What was measured:
[1] = In vitro protein binding, rapid equilibrium dialysis; format: in vitro ADME; settings: SD, rat, plasma
[2] = as above; format: in vitro ADME; settings: beagle, dog, plasma
[3] = as above; format: in vitro ADME; settings: cynomolgus monkey, plasma
[4] = Plasma stability; format: in vitro ADME, SD rat
[5] = test system: CD-1 mouse hepatocytes; assay: Hepatocyte stability; format: in vitro ADME; settings: 1.00 μM
[6] = test system: mouse hepatocytes; assay: Metabolite identification in hepatocytes; format: in vitro ADME; settings: cryopreserved mouse hepatocytes, FC-12738 10 μM, 37 °C, 240 min, LC-UV-MS
[7] = test system: monkey hepatocytes; assay: Metabolite identification in hepatocytes; format: in vitro ADME; settings: cryopreserved monkey hepatocytes, FC-12738 10 μM, 37 °C, 240 min, LC-UV-MS
[8] = Metabolism of FC-12738 in SD rat plasma; format: in vivo
[9] = target: T1, CYP2C8 (Homo sapiens, UniProt P10632); assay: CYP450 inhibition assay; format: in vitro ADME
T1 sequence (P10632 1-490): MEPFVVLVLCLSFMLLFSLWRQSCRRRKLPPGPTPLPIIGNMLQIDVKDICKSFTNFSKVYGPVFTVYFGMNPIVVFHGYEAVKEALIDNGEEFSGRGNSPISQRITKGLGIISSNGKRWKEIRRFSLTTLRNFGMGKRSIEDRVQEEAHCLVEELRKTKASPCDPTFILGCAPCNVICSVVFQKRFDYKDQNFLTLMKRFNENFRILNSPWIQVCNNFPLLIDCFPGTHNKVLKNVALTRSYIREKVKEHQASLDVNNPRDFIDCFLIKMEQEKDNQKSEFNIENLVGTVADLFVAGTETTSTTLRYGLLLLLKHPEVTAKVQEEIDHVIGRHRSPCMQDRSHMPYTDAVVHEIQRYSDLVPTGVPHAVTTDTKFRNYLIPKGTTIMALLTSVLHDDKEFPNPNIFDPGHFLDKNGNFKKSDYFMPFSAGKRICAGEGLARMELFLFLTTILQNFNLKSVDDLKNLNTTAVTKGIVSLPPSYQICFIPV

[10] = target: CYP2C9 (Homo sapiens, UniProt P11712); assay: CYP450 inhibition assay; format: in vitro ADME
Chain of CYP2C9 (P11712 whole entry): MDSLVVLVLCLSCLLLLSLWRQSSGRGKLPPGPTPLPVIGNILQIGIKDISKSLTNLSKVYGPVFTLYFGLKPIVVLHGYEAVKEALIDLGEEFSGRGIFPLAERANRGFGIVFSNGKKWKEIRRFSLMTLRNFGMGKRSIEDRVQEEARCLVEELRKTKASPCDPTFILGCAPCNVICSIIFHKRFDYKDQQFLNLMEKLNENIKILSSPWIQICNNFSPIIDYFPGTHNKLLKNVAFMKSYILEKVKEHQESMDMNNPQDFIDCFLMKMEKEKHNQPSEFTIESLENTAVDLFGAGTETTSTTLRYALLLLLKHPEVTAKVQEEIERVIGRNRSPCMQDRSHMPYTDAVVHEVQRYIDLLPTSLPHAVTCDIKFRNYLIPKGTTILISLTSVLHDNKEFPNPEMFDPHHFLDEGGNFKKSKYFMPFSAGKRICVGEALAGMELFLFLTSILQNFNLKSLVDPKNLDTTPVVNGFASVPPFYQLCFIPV

[11] = test system: CYP3A; assay: CYP450 inhibition assay; format: in vitro ADME; settings: human, pooled human liver microsomes
[12] = target: T2, CYP2B6 (Homo sapiens, UniProt P20813); assay: biochemical; format: in vitro ADME
T2 sequence (P20813 1-491): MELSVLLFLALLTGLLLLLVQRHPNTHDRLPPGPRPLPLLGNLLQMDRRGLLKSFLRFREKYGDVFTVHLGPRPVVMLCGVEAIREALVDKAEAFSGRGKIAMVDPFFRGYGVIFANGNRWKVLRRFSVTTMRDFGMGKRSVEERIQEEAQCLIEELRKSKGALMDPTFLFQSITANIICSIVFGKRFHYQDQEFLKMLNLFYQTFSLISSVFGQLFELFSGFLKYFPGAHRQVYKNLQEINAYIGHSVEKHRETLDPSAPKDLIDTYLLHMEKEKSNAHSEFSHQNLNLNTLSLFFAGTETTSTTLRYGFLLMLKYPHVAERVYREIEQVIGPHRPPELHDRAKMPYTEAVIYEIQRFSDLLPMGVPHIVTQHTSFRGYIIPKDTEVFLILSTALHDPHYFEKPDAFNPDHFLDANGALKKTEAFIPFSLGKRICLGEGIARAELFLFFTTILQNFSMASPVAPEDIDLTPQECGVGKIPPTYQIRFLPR

[13] = target: T1, CYP2C8; assay: CYP time-dependent inhibition assay; format: in vitro ADME
[14] = test system: CYP3A; assay: CYP time-dependent inhibition assay; format: in vitro ADME, human
[15] = test system: CYP2B6; format: in vitro ADME; settings: cryopreserved human hepatocytes, three donors, 0.100 to 15.0 μM, 48 h, 37°C
[16] = test system: human hepatocytes; assay: LDH release cytotoxicity in the CYP induction assay; format: cell-based; settings: three donors, 0.100, 1.00, 3.00, 10.0 and 15.0 μM
[17] = target: OATP1B1 (Homo sapiens, UniProt Q9Y6L6); assay: Transporter inhibition in HEK293 cells; format: in vitro ADME
Chain of OATP1B1 (Q9Y6L6 whole entry, species assumed): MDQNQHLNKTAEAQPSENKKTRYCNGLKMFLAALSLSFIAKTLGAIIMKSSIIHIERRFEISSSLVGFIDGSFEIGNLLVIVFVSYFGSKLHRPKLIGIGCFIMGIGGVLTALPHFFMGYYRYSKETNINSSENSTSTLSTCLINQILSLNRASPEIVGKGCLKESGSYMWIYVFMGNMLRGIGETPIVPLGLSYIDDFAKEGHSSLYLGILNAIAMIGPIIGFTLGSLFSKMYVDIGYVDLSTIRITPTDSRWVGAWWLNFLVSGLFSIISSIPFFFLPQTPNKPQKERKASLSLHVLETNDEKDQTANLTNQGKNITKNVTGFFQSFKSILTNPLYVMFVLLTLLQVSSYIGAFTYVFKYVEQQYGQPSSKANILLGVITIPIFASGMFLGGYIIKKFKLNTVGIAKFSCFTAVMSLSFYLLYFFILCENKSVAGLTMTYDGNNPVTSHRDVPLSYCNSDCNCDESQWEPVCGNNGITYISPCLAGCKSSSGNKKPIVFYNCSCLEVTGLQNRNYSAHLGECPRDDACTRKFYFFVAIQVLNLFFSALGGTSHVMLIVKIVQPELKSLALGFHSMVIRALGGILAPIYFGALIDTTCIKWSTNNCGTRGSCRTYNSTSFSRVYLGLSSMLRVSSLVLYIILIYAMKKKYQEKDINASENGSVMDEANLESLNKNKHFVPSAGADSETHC

[18] = target: OCT2 (Homo sapiens, UniProt O15244); assay: Transporter inhibition in HEK293 cells; format: in vitro ADME
Chain of OCT2 (O15244 whole entry): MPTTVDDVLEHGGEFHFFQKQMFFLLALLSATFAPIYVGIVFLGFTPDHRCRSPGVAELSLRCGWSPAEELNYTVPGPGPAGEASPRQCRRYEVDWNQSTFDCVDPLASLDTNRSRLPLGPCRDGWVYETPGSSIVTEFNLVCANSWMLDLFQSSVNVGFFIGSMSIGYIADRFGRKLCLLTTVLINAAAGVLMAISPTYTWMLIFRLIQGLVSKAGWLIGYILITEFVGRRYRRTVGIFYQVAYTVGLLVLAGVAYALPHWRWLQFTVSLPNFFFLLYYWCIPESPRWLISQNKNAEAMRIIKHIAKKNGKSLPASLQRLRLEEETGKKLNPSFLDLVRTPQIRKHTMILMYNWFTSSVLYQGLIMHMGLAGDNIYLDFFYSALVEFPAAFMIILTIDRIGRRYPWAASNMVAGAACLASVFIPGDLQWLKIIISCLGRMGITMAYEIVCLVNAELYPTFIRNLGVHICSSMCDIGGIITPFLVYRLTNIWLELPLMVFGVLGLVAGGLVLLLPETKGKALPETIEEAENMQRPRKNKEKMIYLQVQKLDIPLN

[19] = target: MATE1 (Homo sapiens, UniProt Q96FL8); assay: Transporter inhibition in HEK293 cells; format: in vitro ADME
Chain of MATE1 (Q96FL8 whole entry): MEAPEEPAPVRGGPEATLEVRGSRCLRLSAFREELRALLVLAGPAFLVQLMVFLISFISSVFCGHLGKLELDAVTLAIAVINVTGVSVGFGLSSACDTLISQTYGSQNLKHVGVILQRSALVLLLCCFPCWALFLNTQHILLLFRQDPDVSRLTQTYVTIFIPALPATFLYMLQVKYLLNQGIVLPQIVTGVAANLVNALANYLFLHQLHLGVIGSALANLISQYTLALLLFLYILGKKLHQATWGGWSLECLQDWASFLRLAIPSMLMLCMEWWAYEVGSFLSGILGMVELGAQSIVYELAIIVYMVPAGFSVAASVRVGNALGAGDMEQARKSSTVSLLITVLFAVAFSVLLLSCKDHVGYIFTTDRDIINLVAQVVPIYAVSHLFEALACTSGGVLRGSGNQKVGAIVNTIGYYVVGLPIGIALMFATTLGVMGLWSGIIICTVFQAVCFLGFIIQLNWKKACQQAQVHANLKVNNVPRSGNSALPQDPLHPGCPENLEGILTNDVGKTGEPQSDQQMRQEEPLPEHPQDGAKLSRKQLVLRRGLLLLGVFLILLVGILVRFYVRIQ

[20] = cutoff IC50 shift >= 1.5-fold, 30 min pre-incubation ± NADPH

## CC(C)[C@@H](NC(=O)[C@H](N)Cc1ccc(O)cc1)C(=O)N[C@H](CC(=O)O)C(=O)N[C@H](CCCCN)C(=O)N[C@H](CCCNC(=N)N)C(=O)O [FC-12738, (D-Tyr)-(D-Val)-(D-Asp)-(D-Lys)-(D-Arg)] (HELM PEPTIDE1{[dY].[dV].[dD].[dK].[dR]}$$$$V2.0)
[1]
  fraction unbound at 6 h, 0.2 µM: 0.482
  fraction unbound at 6 h, 2 µM: 0.443
  fraction unbound at 6 h, 10 µM: 0.493
[2]
  fraction unbound at 6 h, 0.2 µM: 0.492
  fraction unbound at 6 h, 2 µM: 0.461
  fraction unbound at 6 h, 10 µM: 0.691
[3]
  fraction unbound at 6 h, 0.2 µM: 0.538
  fraction unbound at 6 h, 10 µM: 0.736
[4]; SD rat plasma, 2.00 μM, 37.0 °C, up to 120 min
  half-life: > 6.212 h
[4]; SD, rat, plasma
  remaining at 10 min, 2 μM: 104%
  remaining at 0.5 h, 2 μM: 102%
  remaining at 1 h, 2 μM: 113%
  remaining at 2 h, 2 μM: 104%
[5]; cryopreserved CD-1 mouse hepatocytes, 37.0°C, 120 min
  intrinsic clearance CLint(hep): < 1.9 μL/min/10^6 cells
[5]; cryopreserved CD-1 mouse hepatocytes, 37.0°C, 120 min, LC-MS/MS
  half-life: > 6.212 h
[5]; scaled from CD-1 mouse hepatocytes
  hepatic clearance CLint(liver): < 22.1 mL/min/kg
[6]
  Relative Abundance (UV%): 88.92%
[7]
  Relative Abundance (UV%): 89.24%
[8]; male SD rat plasma 0-2 h, IV 2 mg/kg FC-12738 single
  Relative MS abundance (%Total): 97.10%
[8]; male SD rat plasma 0-4 h, SC 10 mg/kg FC-12738 single
  Relative MS abundance (%Total): 96.57%
[9]
  IC50: > 100 µM
[10]
  IC50: > 100 µM
[11]
  IC50: > 100 µM
[12]
  IC50: > 100 µM
[12]; [20]
  Time-dependent inhibition of CYP2B6: no time-dependent inhibition
[13]
  IC50: > 100 µM
[13]; [20]
  Time-dependent inhibition of CYP2C8: no time-dependent inhibition
[14]; human, pooled human liver microsomes
  IC50 at 30 min: > 100 µM
[14]; midazolam and testosterone as substrates, cutoff IC50 shift >= 1.5-fold
  Time-dependent inhibition of CYP3A: no time-dependent inhibition
[15]
  Induction of CYP2B6 (enzyme activity and gene expression): not considered as an inducer
[16]
  Cytotoxicity (released LDH): no cytotoxicity
[17]
  IC50: > 100 µM
[18]
  IC50: > 100 µM
[19]
  IC50: > 100 µM
